{"source": "patent US20090176817A1", "about": "“Method of Treatment of Diarrhea-Predominant Irritable Bowel Syndrome in a Subject” (priority 2005, published 2009)", "key": {"[1]": {"assay": "clinical", "conditions": "human, in vivo, po", "experimental": "Two randomized, double-blind, placebo controlled, rising dose, crossover studies evaluated the single-dose pharmacokinetics of oral cilansetron over a 4 mg to 64 mg dose range. In one study, 24 male subjects (aged 21-36 years) received, at intervals of […], single oral doses of 4, 8, and 16 mg cilansetron in ascending order and a randomized placebo. In the other study, 24 male subjects received, at intervals of ≧1 week, single oral doses of 16, 32, and 64 mg cilansetron in ascending order and a randomized placebo. All doses were administered under fasted conditions. […] Renal excretion of cilansetron was negligible across all doses, with undetectable or very low amounts (<1% of the dose) excreted unchanged in urine.\nData for the evaluation of dose proportionality of oral cilansetron is available from three studies which have evaluated the pharmacokinetics of single doses over a 2 mg to 64 mg dose range. Two randomized, double-blind, placebo controlled, rising dose, crossover studies, in 24 male subjects each, evaluated the single dose pharmacokinetics of oral cilansetron (capsules) over a 4-16 mg and 16-64 mg dose range, respectively. In each study, subjects received, at intervals of ≧1 week, single oral doses of cilansetron in ascending order and a randomized placebo. All doses were administered under fasted conditions. A third open-label, randomized, parallel-group study in 36 male and female subjects, evaluated the single dose pharmacokinetics of a cilansetron 2 mg tablet administered under fed conditions. FIG. 16 to FIG. 19 present box plots of cilansetron AUC(0-inf) and Cmax from these three studies (males only), and corresponding dose-normalized values (normalized to a 1 mg dose). […] Table 2.7.2.3.14 presents descriptive statistics of cilansetron dose-normalized AUC and Cmax in these studies, and the results of statistical comparisons between doses."}, "[2]": {"system": "patients with malignant tumors", "assay": "Study K.241.5017: cisplatin-induced nausea and vomiting", "type": "in vivo, human", "conditions": "IV 8 mg TID", "experimental": "The effect of cilansetron on nausea and vomiting has been studied in 2 clinical studies in cancer patients. Both studies were randomized, singleblind, positive-controlled, parallel-group, pilot studies in male and female patients with malignant tumors, to investigate the effect of cilansetron on cytostatic-induced nausea and vomiting. In both studies, patients were on their first cycle of chemotherapy and were being treated with cisplatin (275 mg/m2 as a single dose in Study S.24 1.2.10 1 and […] for 5 days in Study K.24 1 S O 17). Patients in Study S.24 1.2.10 1 were aged 40-74 years (ITT population=16) and patients in Study K.24 1 S O 17 were aged 39-74 years (ITT population=19). In both studies, patients were randomized to receive either […] or IV ondansetron 8 mg TID for 1 day (Study S.241.2.101) or 5 days (Study K.2415017), corresponding to the day(s) of their cisplatin administration. If nausea and vomiting were completely controlled on a treatment day, the second and/or third doses of cilansetron or ondansetron could be omitted on that day. The primary efficacy parameter in both studies was the combination of the occurrence of vomiting and the severity of nausea, with a responder being defined as a patient with no vomiting and not more than mild nausea during the treatment day(s). […]"}, "[3]": {"system": "healthy subjects", "assay": "Study K.241.5007: rectal visceral perception", "type": "in vivo, human", "conditions": "mean; for Pressure first producing abdominal pain, Differences from Placebo / Pressure first producing feeling of abdominal sensation, Differences from Placebo / Pressure first producing feeling of need to defecate, Differences from Placebo / Volume first producing abdominal pain, Differences from Placebo / Volume first producing feeling of abdominal sensation, Differences from Placebo / Volume first producing feeling of need to defecate, Differences from Placebo: not significant; for Pressure first producing abdominal pain / Pressure first producing feeling of abdominal sensation / Pressure first producing feeling of need to defecate / Volume first producing abdominal pain / Volume first producing feeling of abdominal sensation / Volume first producing feeling of need to defecate: rectal distension, absolute value", "experimental": "The effect of cilansetron on rectal visceral perception was evaluated in a randomized, doubleblind, placebo-controlled, 4-way crossover study in 12 male healthy subjects (ITT population), aged 18-26 years. Subjects received single IV doses of placebo or cilansetron 4 mg, 8 mg, or 16 mg as 30-minute infusions during each of the periods, with a 14-day washout between periods. Rectal distension tests were done during each treatment, immediately following the completion of each infusion. An electronic barostat was used to produce isobarometric distensions (successive 4 mmHg increases every 5 minutes, up to a sensation of abdominal pain or a maximum of 44 mmHg). The primary efficacy parameter was the distension pressure required to induce a sensation of abdominal pain. Secondary parameters were the distension pressure at the first feeling of abdominal/rectal sensation and the first feeling of need to defecate, and the response rate (defined as the number of subjects who experienced no abdominal pain at the maximum pressure of 44 mmHg). The pain threshold for each of the three cilansetron doses was compared to placebo using a one-sided Dunnett t-test."}, "[4]": {"system": "cytochrome P450 enzymes", "description": "An in vitro study using human hepatic microsomes evaluated the effect of some enzyme inhibitors on the metabolism of cilansetron (100 μM)."}}}
{"smiles": "Cc1nccn1C[C@H]1CCc2c(c3cccc4c3n2CCC4)C1=O", "note": "[Cilansetron, (R)-(−)-4,5,6,8,9,10-hexahydro-10-[(2-methyl-1H-imidazol-1-yl)methyl]-11H-pyrido-[3,2,1-jk]-carbazol-11-one]", "values": [{"measurement": "CL/F", "setting": "[1]; 4 mg", "value": "3864 (69) mL/min"}, {"measurement": "CL/F", "setting": "[1]; 8 mg", "value": "3851 (103) mL/min"}, {"measurement": "DN-AUC(0-inf) ratio 8 mg/4 mg", "setting": "[1]; male", "value": 109, "unit": "%"}, {"measurement": "DN-AUC(0-inf) ratio 16 mg/4 mg", "setting": "[1]; male", "value": 117, "unit": "%"}, {"measurement": "DN-AUC(0-inf) ratio 16 mg/8 mg", "setting": "[1]; male", "value": 108, "unit": "%"}, {"measurement": "DN-AUC(0-last) ratio 8 mg/4 mg", "setting": "[1]; male", "value": 120, "unit": "%"}, {"measurement": "DN-AUC(0-last) ratio 16 mg/4 mg", "setting": "[1]; male", "value": 132, "unit": "%"}, {"measurement": "DN-AUC(0-last) ratio 16 mg/8 mg", "setting": "[1]; male", "value": 110, "unit": "%"}, {"measurement": "DN-Cmax ratio 8 mg/4 mg", "setting": "[1]; male", "value": 115, "unit": "%"}, {"measurement": "DN-Cmax ratio 16 mg/4 mg", "setting": "[1]; male", "value": 122, "unit": "%"}, {"measurement": "DN-Cmax ratio 16 mg/8 mg", "setting": "[1]; male", "value": 107, "unit": "%"}, {"measurement": "Dose excreted unchanged in urine", "setting": "[1]; male", "value": "< 1", "unit": "%"}, {"measurement": "Tmax", "setting": "[1]; male", "value": "1 to 1.25", "unit": "h"}, {"measurement": "half-life", "setting": "[1]; male", "value": "72 to 96", "unit": "min"}, {"measurement": "AUC(0-inf)", "setting": "[1]; male, 4 mg", "value": 26.7, "unit": "ng·h/mL"}, {"measurement": "AUC(0-t)", "setting": "[1]; male, 4 mg", "value": 23.2, "unit": "ng·h/mL"}, {"measurement": "Cmax", "setting": "[1]; male, 4 mg", "value": 9.88, "unit": "ng/mL"}, {"measurement": "Tmax", "setting": "[1]; male, 4 mg", "value": 1.25, "unit": "h"}, {"measurement": "Vd/F", "setting": "[1]; male, 4 mg", "value": 522, "unit": "L"}, {"measurement": "half-life", "setting": "[1]; male, 4 mg", "value": 93.6, "unit": "min"}, {"measurement": "AUC(0-inf)", "setting": "[1]; male, 8 mg", "value": 59.4, "unit": "ng·h/mL"}, {"measurement": "AUC(0-t)", "setting": "[1]; male, 8 mg", "value": 55.5, "unit": "ng·h/mL"}, {"measurement": "Cmax", "setting": "[1]; male, 8 mg", "value": 22.1, "unit": "ng/mL"}, {"measurement": "Tmax", "setting": "[1]; male, 8 mg", "value": 1, "unit": "h"}, {"measurement": "Vd/F", "setting": "[1]; male, 8 mg", "value": 472, "unit": "L"}, {"measurement": "half-life", "setting": "[1]; male, 8 mg", "value": 88.2, "unit": "min"}, {"measurement": "Tmax", "setting": "[1]; male, 16 mg", "value": 1, "unit": "h"}, {"measurement": "Response rate", "setting": "[2]", "value": 21.4, "unit": "%"}, {"measurement": "Pressure first producing abdominal pain, Differences from Placebo", "setting": "[3]; 4 mg single IV dose", "value": 0.67, "unit": "mmHg"}, {"measurement": "Pressure first producing feeling of abdominal sensation, Differences from Placebo", "setting": "[3]; 4 mg single IV dose", "value": "−1.00", "unit": "mmHg"}, {"measurement": "Pressure first producing feeling of need to defecate, Differences from Placebo", "setting": "[3]; 4 mg single IV dose", "value": "−0.67", "unit": "mmHg"}, {"measurement": "Volume first producing abdominal pain, Differences from Placebo", "setting": "[3]; 4 mg single IV dose", "value": 12.7, "unit": "mL"}, {"measurement": "Volume first producing feeling of abdominal sensation, Differences from Placebo", "setting": "[3]; 4 mg single IV dose", "value": -20.0, "unit": "mL"}, {"measurement": "Volume first producing feeling of need to defecate, Differences from Placebo", "setting": "[3]; 4 mg single IV dose", "value": -8.75, "unit": "mL"}, {"measurement": "Pressure first producing abdominal pain", "setting": "[3]; 4 mg single IV dose", "value": 31.0, "unit": "mmHg"}, {"measurement": "Pressure first producing feeling of abdominal sensation", "setting": "[3]; 4 mg single IV dose", "value": 12.7, "unit": "mmHg"}, {"measurement": "Pressure first producing feeling of need to defecate", "setting": "[3]; 4 mg single IV dose", "value": 20.3, "unit": "mmHg"}, {"measurement": "Volume first producing abdominal pain", "setting": "[3]; 4 mg single IV dose", "value": 310, "unit": "mL"}, {"measurement": "Volume first producing feeling of abdominal sensation", "setting": "[3]; 4 mg single IV dose", "value": 132, "unit": "mL"}, {"measurement": "Volume first producing feeling of need to defecate", "setting": "[3]; 4 mg single IV dose", "value": 233, "unit": "mL"}, {"measurement": "Pressure first producing abdominal pain, Differences from Placebo", "setting": "[3]; 8 mg single IV dose", "value": 2.00, "unit": "mmHg"}, {"measurement": "Pressure first producing feeling of abdominal sensation, Differences from Placebo", "setting": "[3]; 8 mg single IV dose", "value": "−1.67", "unit": "mmHg"}, {"measurement": "Pressure first producing feeling of need to defecate, Differences from Placebo", "setting": "[3]; 8 mg single IV dose", "value": "−0.67", "unit": "mmHg"}, {"measurement": "Volume first producing abdominal pain, Differences from Placebo", "setting": "[3]; 8 mg single IV dose", "value": -0.83, "unit": "mL"}, {"measurement": "Volume first producing feeling of abdominal sensation, Differences from Placebo", "setting": "[3]; 8 mg single IV dose", "value": -19.2, "unit": "mL"}, {"measurement": "Volume first producing feeling of need to defecate, Differences from Placebo", "setting": "[3]; 8 mg single IV dose", "value": -10.0, "unit": "mL"}, {"measurement": "Pressure first producing abdominal pain", "setting": "[3]; 8 mg single IV dose", "value": 32.3, "unit": "mmHg"}, {"measurement": "Pressure first producing feeling of abdominal sensation", "setting": "[3]; 8 mg single IV dose", "value": 12.0, "unit": "mmHg"}, {"measurement": "Pressure first producing feeling of need to defecate", "setting": "[3]; 8 mg single IV dose", "value": 20.3, "unit": "mmHg"}, {"measurement": "Volume first producing abdominal pain", "setting": "[3]; 8 mg single IV dose", "value": 297, "unit": "mL"}, {"measurement": "Volume first producing feeling of abdominal sensation", "setting": "[3]; 8 mg single IV dose", "value": 133, "unit": "mL"}, {"measurement": "Volume first producing feeling of need to defecate", "setting": "[3]; 8 mg single IV dose", "value": 232, "unit": "mL"}, {"measurement": "Pressure first producing abdominal pain, Differences from Placebo", "setting": "[3]; 16 mg single IV dose", "value": 1.33, "unit": "mmHg"}, {"measurement": "Pressure first producing feeling of abdominal sensation, Differences from Placebo", "setting": "[3]; 16 mg single IV dose", "value": "−1.00", "unit": "mmHg"}, {"measurement": "Pressure first producing feeling of need to defecate, Differences from Placebo", "setting": "[3]; 16 mg single IV dose", "value": "−1.00", "unit": "mmHg"}, {"measurement": "Volume first producing abdominal pain, Differences from Placebo", "setting": "[3]; 16 mg single IV dose", "value": 15.8, "unit": "mL"}, {"measurement": "Volume first producing feeling of abdominal sensation, Differences from Placebo", "setting": "[3]; 16 mg single IV dose", "value": -14.2, "unit": "mL"}, {"measurement": "Volume first producing feeling of need to defecate, Differences from Placebo", "setting": "[3]; 16 mg single IV dose", "value": -3.75, "unit": "mL"}, {"measurement": "Pressure first producing abdominal pain", "setting": "[3]; 16 mg single IV dose", "value": 31.7, "unit": "mmHg"}, {"measurement": "Pressure first producing feeling of abdominal sensation", "setting": "[3]; 16 mg single IV dose", "value": 12.7, "unit": "mmHg"}, {"measurement": "Pressure first producing feeling of need to defecate", "setting": "[3]; 16 mg single IV dose", "value": 20.0, "unit": "mmHg"}, {"measurement": "Volume first producing abdominal pain", "setting": "[3]; 16 mg single IV dose", "value": 313, "unit": "mL"}, {"measurement": "Volume first producing feeling of abdominal sensation", "setting": "[3]; 16 mg single IV dose", "value": 138, "unit": "mL"}, {"measurement": "Volume first producing feeling of need to defecate", "setting": "[3]; 16 mg single IV dose", "value": 238, "unit": "mL"}, {"measurement": "Inhibition of any other cytochrome P450 enzyme activity", "setting": "[4]", "value": "no inhibition"}]}
